Source: patent US8158672B2, “Fluoroalkoxy-substituted 1,3-dihydro-isoindolyl compounds and their pharmaceutical uses” (Celgene Corporation, priority 2002, dated 2012)

| Compound | melting point [°C] |
| --- | --- |
| CC(=O)Nc1cccc2c1C(=O)N(C(CC(=O)N(C)C)c1ccc(OC(F)F)c(OCC3CC3)c1)C2=O (centres unmarked) [Example 5, 3-(4-Acetylamino-1,3-dioxo-1,3-dihydro-isoindol-2-yl)-3-(3-cyclopropylmethoxy-4-difluoromethoxy-phenyl)-N,N -dimethyl-propionamide] | 80 to 82 |
| CC(=O)Nc1cccc2c1C(=O)N(C(CC(N)=O)c1ccc(OC(F)F)c(OCC3CC3)c1)C2=O (centres unmarked) [Example 6, 3-(4-Acetylamino-1,3-dioxo-1,3-dihydro-isoindol-2-yl) -3-(3 cyclopropylmethoxy-4-difluoromethoxy-phenyl) -propionamide] | 77 to 79 |
| O=C(CC(c1ccc(OC(F)F)c(OCC2CC2)c1)N1C(=O)c2ccccc2C1=O)NO (centres unmarked) [Example 8, 3-(3-Cyclopropylmethoxy-4-difluoromethoxy-phenyl) -3-(1,3-dioxo-1,3-dihydro-isoindol-2-yl)-N-hydroxy-propionamide] | 129 to 131 |
| CN(C)C(=O)CC(c1ccc(OC(F)F)c(OCC2CC2)c1)N1Cc2cccc(N)c2C1=O (centres unmarked) [Example 14, 3-(7-Amino-1-oxo-1,3-dihydro-isoindol-2-yl)-3-(3-cyclopropylmethoxy-4-difluoromethoxy-phenyl)-N,N-dimethyl-propionamide] | 70 to 72 |
| CCOc1cc(C(CC(=O)NO)N2Cc3cccc(NC(=O)C4CC4)c3C2=O)ccc1OC(F)F (centres unmarked) [Example 26, Cyclopropanecarboxylic acid {2-[1-(4-difluoromethoxy-3-ethoxy-phenyl)-2-hydroxycarbamoyl-ethyl]-3-oxo-2,3-dihydro-1H-isoindol-4-yl}-amide] | 116 to 118 |
| CCOc1cc(C(CC(=O)O)N2C(=O)c3cccc(NC(C)=O)c3C2=O)ccc1OC(F)F (centres unmarked) [Example 30, 3-(4-Acetylamino-1,3-dioxo-1,3-dihydro-isoindol-2-yl)-3-(4-difluoromethoxy-3-ethoxy-phenyl)-propionic acid] | 89 to 91 |
| CCOc1cc(C(CC(N)=O)N2C(=O)c3cccc(NC(C)=O)c3C2=O)ccc1OC(F)F (centres unmarked) [Example 31, 3-(4-Acetylamino-1,3-dioxo-1,3-dihydro-isoindol-2-yl)-3-(4-difluoromethoxy-3-ethoxy-phenyl)-propionamide] | 178 to 180 |
| CCOc1cc(C(CC(=O)NO)N2C(=O)c3cccc(NC(C)=O)c3C2=O)ccc1OC(F)F (centres unmarked) [Example 33, 3-(4-Acetylamino-1,3-dioxo-1,3-dihydro-isoindol-2-yl)-3-(4-difluoromethoxy-3-ethoxy-phenyl)-N-hydroxy-propionamide] | 148 to 150 |
| CCOc1cc(C(CS(C)(=O)=O)N2Cc3cccc(NC(=O)C4CC4)c3C2=O)ccc1OC(F)F (centres unmarked) [Example 35, Cyclopropanecarboxylic acid {2-[1-(4-difluoromethoxy-3-ethoxy-phenyl)-2-methanesulfonyl-ethyl]-3-oxo-2,3-dihydro-1H-isoindol-4-yl}-amide] | 115 to 117 |
| CCOc1cc(C(CS(C)(=O)=O)N2C(=O)c3cccc(NC(C)=O)c3C2=O)ccc1OC(F)F (centres unmarked) [Example 36] | 118 to 120 |
| CCOc1cc(C(CC(N)=O)N2Cc3c(Cl)ccc(NC(=O)C4CC4)c3C2=O)ccc1OC(F)F (centres unmarked) [Example 37, Cyclopropanecarboxylic acid {2-[2-carbamoyl-1-(4-difluoromethoxy-3-ethoxy-phenyl)-ethyl]-7-chloro-3-oxo-2,3-dihydro-1H-isoindol-4-yl}-amide] | 198 to 200 |
| CCOc1cc(C(CC(=O)N2CCOCC2)N2C(=O)c3cccc(NC(C)=O)c3C2=O)ccc1OC(F)F (centres unmarked) [Example 38, N-{2-[1-(4-Difluoromethoxy-3-ethoxy-phenyl)-3-morpholin-4-yl-3-oxo-propyl]-1,3-dioxo-2,3-dihydro-1H-isoindol-4-yl}-acetamide] | 109 to 111 |
| CC(=O)Nc1cccc2c1C(=O)N(C(CC(=O)N(C)C)c1ccc(OC(F)F)c(OC(F)F)c1)C2=O (centres unmarked) [Example 40, 3-(4-Acetylamino-1,3-dioxo-1,3-dihydro-isoindol-2-yl)-3-(3,4-bis-difluoromethoxy-phenyl)-N,N-dimethyl-propionamide] | 83 to 85 |
| COC(=O)CC(c1ccc(OC(F)F)c(OC(F)F)c1)N1Cc2c(Cl)ccc(NC(=O)C3CC3)c2C1=O (centres unmarked) [Example 41, 3-(3,4-Bis-difluoromethoxy-phenyl)-3-[4-chloro-7-(cyclopropanecarbonyl-amino)-1-oxo-1,3-dihydro-isoindol-2-yl]-propionic acid methyl ester] | 175 to 177 |
| NC(=O)CC(c1ccc(OC(F)F)c(OC(F)F)c1)N1Cc2cccc(NC(=O)C3CC3)c2C1=O (centres unmarked) [Example 43, Cyclopropanecarboxylic acid {2-[1-(3,4-bis-difluoromethoxy-phenyl)-2-carbamoyl-ethyl]-3-oxo-2,3-dihydro-1H-isoindol-4-yl}-amide] | 198 to 200 |
| O=C(CC(c1ccc(OC(F)F)c(OC(F)F)c1)N1Cc2cccc(NC(=O)C3CC3)c2C1=O)NO (centres unmarked) [Example 44, Cyclopropanecarboxylic acid {2-[1-(3,4-bis-difluoromethoxy-phenyl)-2-hydroxycarbamoyl-ethyl]-3-oxo-2,3-dihydro-1H-isoindol-4-yl}-amide] | 191 to 193 |
| O=C(O)CC(c1ccc(OC(F)F)c(OC(F)F)c1)N1Cc2cccc(NC(=O)C3CC3)c2C1=O (centres unmarked) [Example 45, 3-(3,4-Bis-difluoromethoxy-phenyl)-3-[7-(cyclopropanecarbonyl-amino)-1-oxo-1,3-dihydro-isoindol-2-yl]-propionic acid] | 94 to 96 |

Second part, the compound after the results:

| melting point [°C] | Compound |
| --- | --- |
| 105 to 107 | CCOc1cc(C(CC(=O)O)N2Cc3cccc(NC(C)=O)c3C2=O)ccc1OC(F)F (centres unmarked) [Example 22, 3-(7-Acetylamino-1-oxo-1,3-dihydro-isoindol-2-yl)-3-(4-difluoromethoxy-3-ethoxy-phenyl)-propionic acid] |
| 179 to 181 | CCOc1cc(C(CC(N)=O)N2Cc3cccc(NC(=O)C4CC4)c3C2=O)ccc1OC(F)F (centres unmarked) [Example 24, Cyclopropanecarboxylic acid {2-[2-carbamoyl-1-(4-difluoromethoxy-3-ethoxy-phenyl)-ethyl]-3-oxo-2,3-dihydro-1H -isoindol-4-yl}-amide] |
| 135 to 137 | CCOc1cc(C(CC(=O)N(C)C)N2Cc3cccc(NC(=O)C4CC4)c3C2=O)ccc1OC(F)F (centres unmarked) [Example 25, Cyclopropanecarboxylic acid {2-[1-(4-difluoromethoxy-3-ethoxy-phenyl)-2-dimethylcarbamoyl-ethyl]-3-oxo-2,3-dihydro-1H-isoindol-4-yl}-amide] |
| 129 to 131 | CCOc1cc(C(CC(N)=O)N2Cc3cccc(NC(C)=O)c3C2=O)ccc1OC(F)F (centres unmarked) [Example 27, 3-(7-Acetylamino-1-oxo-1,3-dihydro-isoindol-2-yl)-3-(4-difluoromethoxy-3-ethoxy-phenyl)-propionamide] |
| 141 to 143 | CCOc1cc(C(CC(=O)N(C)C)N2Cc3cccc(NC(C)=O)c3C2=O)ccc1OC(F)F (centres unmarked) [Example 28, 3-(7-Acetylamino-1-oxo-1,3-dihydro-isoindol-2-yl)-3-(4-difluoromethoxy-3-ethoxy-phenyl)-N,N-dimethyl-propionamide] |
| 121 to 123 | CCOc1cc(C(CC(=O)NO)N2Cc3cccc(NC(C)=O)c3C2=O)ccc1OC(F)F (centres unmarked) [Example 29, 3-(7-Acetylamino-1-oxo-1,3-dihydro-isoindol-2-yl)-3-(4-difluoromethoxy-3-ethoxy-phenyl)-N-hydroxy-propionamide] |
| 163 to 165 | CCOc1cc(C(CC(=O)N(C)C)N2C(=O)c3cccc(NC(C)=O)c3C2=O)ccc1OC(F)F (centres unmarked) [Example 32, 3-(4-Acetylamino-1,3-dioxo-1,3-dihydro-isoindol-2-yl)-3-(4-difluoromethoxy-3-ethoxy-phenyl)-N,N-dimethyl-propionamide] |
| 164 to 166 | CCOc1cc(C(CC(=O)N2CCOCC2)N2Cc3cccc(NC(C)=O)c3C2=O)ccc1OC(F)F (centres unmarked) [Example 39, N-{2-[1-(4-Difluoromethoxy-3-ethoxy-phenyl)-3-morpholin-4-yl-3-oxo-propyl]-3-oxo-2,3-dihydro-1H-isoindol-4-yl}-acetamide] |
| 158 to 160 | CN(C)C(=O)CC(c1ccc(OC(F)F)c(OC(F)F)c1)N1Cc2cccc(NC(=O)C3CC3)c2C1=O (centres unmarked) [Example 42, Cyclopropanecarboxylic acid {2-[1-(3,4-bis-difluoromethoxy-phenyl)-2-dimethylcarbamoyl-ethyl]-3-oxo-2,3-dihydro-1H-isoindol-4-yl}-amide] |
